Measured values reported in patent publication US20040133938A1, “Use of lipoic acid in plant culture media” (priority 2002, published 2004).

System: MicroTom cotyledon explants
Assay: Tissue browning severity on Agrobacterium-inoculated MicroTom cotyledon explants
Type: cell-based, Lycopersicon esculentum
Details: after 5 days on selection media
Description: This example describes the use of lipoic acid in an Agrobacterium-based tomato transformation process. MicroTom (a cultivar of tomato species: Lycopersicon esculentum) seeds from Tomato Growers (Ball Seed Co., West Chicago, Ill. USA) were surface-sterilized by first soaking for 10 min in sterile deionized water, removing the water, and then adding enough 70% ethanol to immerse the seeds for 1 min while stirring vigorously and then aspirating the ethanol. The seeds were rinsed 2× with sterile deionized water and then soaked in 25% Chlorox with 1-2 drops of Tween 20 for 10 min while stirring frequently. The seeds were rinsed 3× with sterile deionized water. The seeds were germinated in phytatrays containing Davis Germination medium (4.3 g/L MS salts, 2 ml/L Gamborg's B-5 500× salts, 20 g/L sucrose and 10 g/L agar) (approximately 120 seeds/container), and the phytatrays were wrapped with aluminum foil. The phytatray cultures were maintained at 28° C. under the dark for 5 days. After 5 days, the phytatray cultures were unwrapped and grown at 24° C. under a 16 h photoperiod for about 44 h.
Cotyledon explants were isolated from seedlings 7 days after sowing seeds on Davis Germination medium. Cotyledon explants were prepared by bathing them in 6 mL of TXD liquid medium (4.3 g/L MS salts, 2 mL/L Gamborg's B-5 500× salts, 4 mg/L pCPA (p-chlorophenoxyactic acid), 0.005 mg/L kinetin, and 30 g/L sucrose) to prevent desiccation and trimming them at both ends using a #15 feather blade. Immediately after the trimming, the cotyledon explants were gently placed on “feeder plates” containing UC2PC medium (2.2 g/L MS salts, 2.2 mL/L, Gamborg's B-5 500× salts, 0.2 mg/L 2,4-D, 4 mg/L pCPA, 0.1 mg/L kinetin, 30 g/L sucrose, 0.2 g/L potassium phosphate, 10 g/L agar, 8 mL/L acetosyringone (4.91 mg/mL), and 4 mL galacturonic acid (53.05 mg/mL)). The “feeder plates” are made by overlaying 2 mL of tobacco suspension cells and a sterile Whatman filter on the plates containing UC2PC medium. The cotyledon explants were gently poked with a sharp forceps (ASIM5311, Stainless French, made in Switzerland). Usually six to ten pokes were made per explant depending the size of cotyledons. Right after poking, the cotyledons were inoculated with Agrobacterium containing pMON15715 (FIG. 1) by adding 3 mL of the adjusted Agrobacterium solution on top of the cotyledons. The plates were incubated for 10 min at room temperature, and the Agrobacterium solution was aspirated with a sterile pipette. The cotyledons were then co-cultured for 2 days at 23-24° C. under a 16-h photoperiod. The co-culture plates were placed in plastic bags to keep the humidity, which is preferable for MicroTom growth.
[…] Three to four weeks after the induction stage, the cotyledons formed buds or shoots. Cotyledons with buds or shoots were separated by individual event and transferred to, shoot elongation medium E2 (SI-2 medium without IAA), supplemented with 100 mg/L kanamycin for two to four weeks. All culture plates were placed in a culture box, placed inside a plastic bag, and cultured at 23-24° C. under a 16 h photoperiod.
Evaluation of plants after transformation with pMON15715 (FIG. 1) as described above was carried out in multiple ways. About five days after selection, tissue browning severity within and around the poked region on cotyledon explants was measured under a dissecting microscope. Low tissue browning severity was determined as less than 30% of the pokes made on each cotyledon explant that produced browning tissue and the high tissue browning severity was determined as more than 30% of the pokes made on each explant that generated browning tissue 5 days after culturing on selection medium. All the treatments of lipoic acid at concentrations of 5, 10, 50 and 100 μM had 1.5- to 1.8-fold increases of the percentage of explants scored as low tissue browning severity, respectively, compared to the treatment without lipoic acid (Table 1).

Compound: O=C(O)CCCCC1CCSS1 (centres unmarked) [lipoic acid, 1,2-dithiolane-3-pentanoic acid]
- % high browning (5 μM lipoic acid): 34.9%
- % low browning (5 μM lipoic acid): 65.1%
- % high browning (10 μM lipoic acid): 33.9%
- % low browning (10 μM lipoic acid): 66.1%
- % high browning (50 μM lipoic acid): 34.4%
- % low browning (50 μM lipoic acid): 65.6%
- % high browning (100 μM lipoic acid): 46%
- % low browning (100 μM lipoic acid): 54%
